Key:
Caspase-3 = biological target: T1, Caspase-3 (Homo sapiens, UniProt P42574); experiment: Inhibition of human recombinant caspase 3 assessed as accumulation of fluorogenic product by fluorometric assay
T1 sequence (P42574 whole entry): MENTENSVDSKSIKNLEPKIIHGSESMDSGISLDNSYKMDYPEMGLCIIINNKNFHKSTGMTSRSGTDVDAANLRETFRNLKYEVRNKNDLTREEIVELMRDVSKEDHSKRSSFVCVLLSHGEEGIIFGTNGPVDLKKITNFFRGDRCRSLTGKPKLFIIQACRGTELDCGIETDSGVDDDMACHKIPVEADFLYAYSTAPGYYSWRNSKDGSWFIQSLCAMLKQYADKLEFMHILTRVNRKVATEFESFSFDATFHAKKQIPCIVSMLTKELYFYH

Caspase-6 = biological target: T2, Caspase-6 (Homo sapiens, UniProt P55212); experiment: Inhibition of human recombinant caspase 6 assessed as accumulation of fluorogenic product by fluorometric assay
T2 sequence (P55212 whole entry): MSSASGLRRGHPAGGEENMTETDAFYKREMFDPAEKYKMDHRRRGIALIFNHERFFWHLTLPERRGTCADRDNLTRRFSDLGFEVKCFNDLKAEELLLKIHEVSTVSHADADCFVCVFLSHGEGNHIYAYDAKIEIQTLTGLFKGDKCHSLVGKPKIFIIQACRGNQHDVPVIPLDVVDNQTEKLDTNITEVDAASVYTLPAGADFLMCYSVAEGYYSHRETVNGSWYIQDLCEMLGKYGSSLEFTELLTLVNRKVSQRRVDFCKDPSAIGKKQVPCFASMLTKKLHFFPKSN

Caspase-1 = biological target: T3, Caspase-1 (Homo sapiens, UniProt P29466); experiment: Inhibition of human recombinant caspase 1 assessed as accumulation of fluorogenic product by fluorometric assay
T3 sequence (P29466 whole entry): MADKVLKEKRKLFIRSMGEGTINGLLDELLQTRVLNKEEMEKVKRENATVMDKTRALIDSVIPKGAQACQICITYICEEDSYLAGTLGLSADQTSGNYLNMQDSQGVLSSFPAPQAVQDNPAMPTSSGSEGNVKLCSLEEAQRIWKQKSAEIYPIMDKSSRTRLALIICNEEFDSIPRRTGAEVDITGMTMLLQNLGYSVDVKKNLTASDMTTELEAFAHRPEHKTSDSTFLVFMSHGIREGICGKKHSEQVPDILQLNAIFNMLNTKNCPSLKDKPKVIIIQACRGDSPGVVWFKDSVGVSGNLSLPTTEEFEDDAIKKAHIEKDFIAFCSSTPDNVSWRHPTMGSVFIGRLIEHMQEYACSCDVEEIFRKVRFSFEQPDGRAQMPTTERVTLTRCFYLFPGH

Caspase-8 = Caspase-8 (Homo sapiens, UniProt Q14790); experiment: Inhibition of human recombinant caspase 8 assessed as accumulation of fluorogenic product by fluorometric assay
Caspase-8, sequence (Q14790 217-374 limits assumed): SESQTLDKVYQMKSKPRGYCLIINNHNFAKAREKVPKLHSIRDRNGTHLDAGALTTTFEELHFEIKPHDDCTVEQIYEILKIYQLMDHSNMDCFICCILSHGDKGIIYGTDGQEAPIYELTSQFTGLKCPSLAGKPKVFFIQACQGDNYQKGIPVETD
Caspase-8, sequence (Q14790 385-479 limits assumed): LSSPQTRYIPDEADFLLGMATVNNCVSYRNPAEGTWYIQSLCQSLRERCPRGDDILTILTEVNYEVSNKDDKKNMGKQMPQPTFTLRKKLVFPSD

Caspase-7 = biological target: T4, Caspase-7 (Homo sapiens, UniProt P55210); experiment: Inhibition of human recombinant caspase 7 assessed as accumulation of fluorogenic product by fluorometric assay
T4 sequence (P55210 whole entry): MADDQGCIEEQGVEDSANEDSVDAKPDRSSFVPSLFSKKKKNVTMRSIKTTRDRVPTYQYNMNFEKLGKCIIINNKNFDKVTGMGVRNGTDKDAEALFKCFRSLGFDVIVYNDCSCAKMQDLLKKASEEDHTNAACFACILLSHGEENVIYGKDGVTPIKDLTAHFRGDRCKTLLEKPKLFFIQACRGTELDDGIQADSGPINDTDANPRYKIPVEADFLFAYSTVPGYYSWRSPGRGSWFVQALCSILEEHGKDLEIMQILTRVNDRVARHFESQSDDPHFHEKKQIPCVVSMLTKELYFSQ

Homo sapiens = organism: Homo sapiens; experiment: Selectivity for human recombinant caspase 3 over human recombinant caspase 6

IC50 (Caspase-3) [nM]	IC50 (Caspase-6) [nM]	IC50 (Caspase-1) [nM]	IC50 (Caspase-8) [nM]	IC50 (Caspase-7) [nM]	fold change (FC) (Homo sapiens)	Structure (SMILES)
14.5	> 5000	–	–	–	–	O=C1C(=O)N(Cc2ccccc2)c2ccc(S(=O)(=O)N3CCC[C@H]3COc3ccccc3)cc21
323	156	3300	> 50000	248	–	N#CC(C#N)=C1C(=O)N(Cc2ccccc2)c2ccc(S(=O)(=O)N3CCC3)cc21
> 20000	> 20000	> 25000	> 50000	> 20000	–	O=C1Nc2ccc(S(=O)(=O)N3CCOCC3)cc2C1=O
673	358	4700	> 50000	443	–	COc1ccc(CN2C(=O)C(=C(C#N)C#N)c3cc(S(=O)(=O)N4CCCC4)ccc32)cc1
1030	12800	> 10000	> 50000	1480	10	O=C1C(=O)N(Cc2ccccc2)c2ccc(S(=O)(=O)N3CCSCC3)cc21
583	325	–	> 50000	878	–	N#CC(C#N)=C1C(=O)N(Cc2ccccc2)c2ccc(S(=O)(=O)N3CCCCC3)cc21
671	241	4700	> 50000	587	–	N#CC(C#N)=C1C(=O)N(Cc2ccccc2)c2ccc(S(=O)(=O)N3CCCC3)cc21
718	197	4180	> 50000	471	–	COc1ccc(CN2C(=O)C(=C(C#N)C#N)c3cc(S(=O)(=O)N4CCC4)ccc32)cc1
724	468	> 10000	> 50000	471	–	N#CC(C#N)=C1C(=O)N(Cc2ccc(Cl)c(Cl)c2)c2ccc(S(=O)(=O)N3CCCC3)cc21
1450	151	4580	> 50000	1620	–	N#CC(C#N)=C1C(=O)N(Cc2ccccc2)c2ccc(S(=O)(=O)N3CCSCC3)cc21
365	280	> 10000	> 50000	340	–	N#CC(C#N)=C1C(=O)N(Cc2ccc(Cl)c(Cl)c2)c2ccc(S(=O)(=O)N3CCC3)cc21
1550	592	5350	> 50000	7900	–	N#CC(C#N)=C1C(=O)N(Cc2ccc(Cl)c(Cl)c2)c2ccc(S(=O)(=O)N3CCOCC3)cc21
114	9830	> 10000	> 50000	132	–	O=C1C(=O)N(Cc2ccccc2)c2ccc(S(=O)(=O)N3CCC3)cc21
4700	425	–	> 50000	4470	–	N#CC(C#N)=C1C(=O)N(Cc2ccccc2)c2ccc(S(=O)(=O)N3CCOCC3)cc21
1430	> 15000	> 25000	> 50000	2230	–	O=C1C(=O)N(Cc2ccc(Cl)c(Cl)c2)c2ccc(S(=O)(=O)N3CCOCC3)cc21
1990	230	5350	> 50000	5100	–	N#CC(C#N)=C1C(=O)N(Cc2ccc(Cl)c(Cl)c2)c2ccc(S(=O)(=O)N3CCSCC3)cc21
–	–	–	–	2.95	–	CC(=O)N[C@@H](CC(=O)O)C(=O)N[C@@H](CCC(=O)O)C(=O)N[C@H](C(=O)N[C@H](C=O)CC(=O)O)C(C)C
4630	453	6820	> 50000	4100	–	COc1ccc(CN2C(=O)C(=C(C#N)C#N)c3cc(S(=O)(=O)N4CCOCC4)ccc32)cc1
1400	545	> 10000	> 50000	1150	–	COc1ccc(CN2C(=O)C(=C(C#N)C#N)c3cc(S(=O)(=O)N4CCCCC4)ccc32)cc1
529	568	> 10000	> 50000	3420	–	N#CC(C#N)=C1C(=O)N(Cc2ccc(Cl)c(Cl)c2)c2ccc(S(=O)(=O)N3CCCCC3)cc21
1670	188	4300	> 50000	1890	–	COc1ccc(CN2C(=O)C(=C(C#N)C#N)c3cc(S(=O)(=O)N4CCSCC4)ccc32)cc1

Reference: ChEMBL document CHEMBL1153442, “Synthesis and in vitro evaluation of sulfonamide isatin Michael acceptors as small molecule inhibitors of caspase-6” (J Med Chem, 2009)
